This note sets out measurements from US20230114241A1, “METHODS OF TREATING EPILEPSY USING THE SAME” (Trevena, Inc., priority 2019, published 2023).

Assay [1] addresses T1, human sphingosine-1-phosphate receptor 1 (S1P1) (Homo sapiens, UniProt P21453). Kind of assay: Inhibition of cAMP production (HTRF cAMP HiRange), S1P1 CHO-K1 cells. Format: cell-based. The conditions noted are these: inhibition of cAMP production; for Emax: CHO-K1, efficacy normalized to maximum efficacy of fingolimod, read-out: hS1P1 CAMP SPAN; for EC50: potency, read-out: hS1P1 CAMP pEC50 (converted). Put shortly: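 CHO-K1 cells co-expressing human S1P1 (C-terminal ProLink tag) and EA-β-arrestin2, plated overnight; after 30 min compound incubation at 37 °C, intracellular cAMP measured by HTRF TR-FRET following 1 h at room temperature. Values normalized to fingolimod.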
Target sequence in this assay (P21453 whole entry): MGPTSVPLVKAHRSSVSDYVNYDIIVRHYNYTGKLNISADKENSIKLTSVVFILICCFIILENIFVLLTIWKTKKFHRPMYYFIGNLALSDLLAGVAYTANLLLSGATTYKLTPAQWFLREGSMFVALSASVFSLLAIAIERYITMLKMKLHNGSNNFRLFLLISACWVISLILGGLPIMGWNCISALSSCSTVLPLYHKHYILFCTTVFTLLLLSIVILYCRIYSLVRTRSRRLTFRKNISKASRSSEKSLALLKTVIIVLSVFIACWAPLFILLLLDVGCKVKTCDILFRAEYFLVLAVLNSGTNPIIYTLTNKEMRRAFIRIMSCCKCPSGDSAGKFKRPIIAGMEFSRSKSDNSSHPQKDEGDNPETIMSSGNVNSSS

Assay [2] deals with T1, human sphingosine-1-phosphate receptor 1 (S1P1). Description: β-Arrestin2 recruitment assay (PathHunter), S1P1 CHO-K1 cells. Format: cell-based. The conditions noted are these: for Emax: CHO-K1, β-arrestin2 recruitment, efficacy normalized to maximum efficacy of fingolimod, read-out: hS1P1 B-arrestin2 SPAN; for EC50: β-arrestin2 recruitment, potency, read-out: hS1P1 B-arrestin2 pEC50 (converted). Put shortly:
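CHO-K1 cells co-expressing EA-β-arrestin2 and ProLink-tagged human S1P1 plated overnight, then stimulated 60 min at 37 °C. Enzyme-fragment complementation (β-galactosidase) detected after 1 h at room temperature by luminescence; values normalized to fingolimod.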
Target sequence in this assay (P21453 whole entry): as above
Target sequence in this assay (P32121 whole entry partner): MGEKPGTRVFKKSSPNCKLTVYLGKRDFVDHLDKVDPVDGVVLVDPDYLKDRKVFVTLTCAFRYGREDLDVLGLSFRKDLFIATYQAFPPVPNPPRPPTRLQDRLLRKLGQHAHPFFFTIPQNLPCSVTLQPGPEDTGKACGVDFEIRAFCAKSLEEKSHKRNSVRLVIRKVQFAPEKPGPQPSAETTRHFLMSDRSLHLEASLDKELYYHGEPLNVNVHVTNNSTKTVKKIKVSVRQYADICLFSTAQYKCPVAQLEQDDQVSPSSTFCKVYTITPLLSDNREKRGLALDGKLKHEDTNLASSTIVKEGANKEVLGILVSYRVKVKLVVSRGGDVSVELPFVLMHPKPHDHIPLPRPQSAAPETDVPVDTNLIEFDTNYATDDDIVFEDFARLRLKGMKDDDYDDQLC
In general terms: Arrestin recruitment assays detect the binding of arrestin to an activated receptor.

Regarding `C=CCn1nnc2cc(-c3nc(-c4ccccc4)no3)ccc21` [Compound 270, 5-(3-phenyl-1,2,4-oxadiazol-5-yl)-1-(prop-2-en-1-yl)-1H-1,2,3-benzotriazole], in assay [1], the Emax was less than 75% and the EC50 was greater than 0.316 µM. Moreover, in assay [2], the Emax was less than 75% and the EC50 is greater than 10 µM.

As for `Cc1cccc(-c2nc(-c3ccc4c(c3)nnn4C3CCCC3)no2)c1` [Compound 273, 3-(1-cyclopentyl-1H-benzo[d][1,2,3]triazol-5-yl)-5-(m-tolyl)-1,2,4-oxadiazole], the Emax in assay [1] and in assay [2] was less than 75% throughout. Besides, the EC50 in assay [1] was greater than 0.316 µM; in assay [2], greater than 10 µM.

For `CSc1ccccc1-c1nc(-c2ccc3c(c2)nnn3C(C)C)no1` [Compound 276, 3-(1-isopropyl-1H-benzo[d][1,2,3]triazol-5-yl)-5-(2-(methylthio)phenyl)-1,2,4-oxadiazole], the Emax in assay [1] and in assay [2] was greater than 75% in each case. The EC50 in assay [1] is less than 0.316 µM; in assay [2] it was less than 10 µM.

For `CC(C)n1nnc2cc(-c3noc(C4CCCC4)n3)ccc21` [Compound 278, 5-(5-cyclopentyl-1,2,4-oxadiazol-3-yl)-1-(propan-2-yl)-1H-1,2,3-benzotriazole5-(5-cyclopentyl-1,2,4-oxadiazol-3-yl)-1-(propan-2-yl)-1H-1,2,3-benzotriazole], the Emax in assay [1] and in assay [2] was less than 75% in each case.

For the compound `CC(C)Cn1nnc2cc(-c3nc(-c4ccccc4Cl)no3)ccc21` [Compound 289, 5-[3-(2-chlorophenyl)-1,2,4-oxadiazol-5-yl]-1-(2-methylpropyl)-1H-1,2,3-benzotriazole], the Emax in assay [1] and in assay [2] was less than 75% each time. Moreover, the EC50 in assay [1] was greater than 0.316 µM; in assay [2], greater than 10 µM.

Take `O=C1CC2(CCCC2)Oc2ccc(-c3nc(-c4cccnc4)no3)cc21` [Compound 298, 6-[3-(pyridin-3-yl)-1,2,4-oxadiazol-5-yl]-3,4-dihydrospiro[1-benzopyran-2,1′-cyclopentane]-4-one]: the Emax in assay [1] was greater than 75%; in assay [2] it was less than 75%. The EC50 was greater than 0.316 µM in assay [1] and less than 10 µM in assay [2].

For `CCC1(CC)CC(=O)c2cc(-c3nnc(-c4ccccc4OC)o3)ccc2O1` [Compound 300, 2,2-diethyl-6-(5-(2-methoxyphenyl)-1,3,4-oxadiazol-2-yl)chroman-4-one], the Emax in assay [1] and in assay [2] was greater than 75% each time. Also, the EC50 in assay [1] was greater than 0.316 µM; in assay [2], greater than 10 µM.

In the case of `CCC1(CC)CC(=O)c2cc(-c3nc(-c4ccc5c(c4)nnn5C(C)C)no3)ccc2O1` [Compound 305, 2,2-diethyl-6-(3-(1-isopropyl-1H-benzo[d][1,2,3]triazol-5-yl)-1,2,4-oxadiazol-5-yl)chroman-4-one], in assay [1], the Emax is greater than 75% and the EC50 was greater than 0.316 µM. For the same compound, in assay [2], the Emax was less than 75% and the EC50 is greater than 10 µM.

With `Cc1ccccc1-c1noc(-c2ccc3c(c2)nnn3C2CCC2)n1` [Compound 306, 1-cyclobutyl-5-[3-(2-methylphenyl)-1,2,4-oxadiazol-5-yl]-1H-1,2,3-benzotriazole], the Emax was greater than 75% in assay [1] and less than 75% in assay [2]. For the same compound, the figures for the EC50 in assay [1] and in assay [2] were less than 0.316 µM and less than 10 µM, respectively.

As to `CCC1(CC)CC(=O)c2cc(-c3nc(-c4cncc(OC)c4)no3)ccc2O1` [Compound 311, 2,2-diethyl-6-(3-(5-methoxypyridin-3-yl)-1,2,4-oxadiazol-5-yl)chroman-4-one], the Emax in assay [1] and in assay [2] was greater than 75% each time. For the same compound, the EC50 in assay [1] was greater than 0.316 µM; in assay [2] it was greater than 10 µM.

As to `CC(C)n1ccc2cc(-c3nc(-c4cccc5c4OCCC5)no3)ccc21` [Compound 327, 3-chroman-8-yl-5-(1-isopropylindol-5-yl)-1,2,4-oxadiazole], the Emax in assay [1] is less than 75%; in assay [2], greater than 75%. The results for the EC50 in assay [1] and in assay [2] were greater than 0.316 µM and less than 10 µM, respectively.

Take `COc1cccc(F)c1-c1noc(-c2ccc3c(ccn3C(C)C)c2)n1` [Compound 328, 3-(2-fluoro-6-methoxy-phenyl)-5-(1-isopropyl-indol-5-yl)-1,2,4-oxadiazole]: in assay [1], the Emax is greater than 75% and the EC50 is greater than 0.316 µM. Also, in assay [2], the Emax was greater than 75% and the EC50 was less than 10 µM.

On to `COc1ccccc1-c1nnc(-c2ccc3[nH]oc(=O)c3c2)o1` [Compound 339, 5-[5-(2-methoxyphenyl)-1,3,4-oxadiazol-2-yl]-1,3-dihydro-2,1-benzoxazol-3-one], for which, in assay [1], the Emax is less than 75% and the EC50 is greater than 0.316 µM. Besides, in assay [2], the Emax was less than 75% and the EC50 was greater than 10 µM.

Take `COc1ccccc1-c1nnc(-c2ccc3c(c2)c(=O)on3C)o1` [Compound 340, 5-[5-(2-methoxyphenyl)-1,3,4-oxadiazol-2-yl]-1-methyl-1,3-dihydro-2,1-benzoxazol-3-one]: in assay [1], the Emax is less than 75% and the EC50 was greater than 0.316 µM. Further, in assay [2], the Emax is less than 75% and the EC50 was greater than 10 µM.

For the compound `COc1ccccc1-c1nnc(-c2ccc3c(c2)CCC(=O)N3)o1` [Compound 341, 6-[5-(2-methoxyphenyl)-1,3,4-oxadiazol-2-yl]-1,2,3,4-tetrahydro-quinolin-2-one], in assay [1], the Emax was less than 75% and the EC50 is greater than 0.316 µM. Besides, in assay [2], the Emax was less than 75% and the EC50 was greater than 10 µM.

For the compound `Cc1nc(-c2ccccc2)oc1-c1cnc2c(c1)CC(=O)N2` [Compound 360, 5-(4-methyl-2-phenyl-1,3-oxazol-5-yl)-1H,2H,3H-pyrrolo[2,3-b]pyridin-2-one], the Emax in assay [1] and in assay [2] was less than 75% in each case. For the same compound, the EC50 in assay [1] was greater than 0.316 µM; in assay [2], greater than 10 µM.

As for `COc1ccc(-c2nc(-c3cccc4[nH]ccc34)ns2)cc1` [Compound 361, 4-[5-(4-methoxyphenyl)-1,2,4-thiadiazol-3-yl]-1H-indole], the Emax in assay [1] and in assay [2] was less than 75% each time. Besides, the EC50 in assay [1] was greater than 0.316 µM; in assay [2], greater than 10 µM.

On to `Cc1ccccc1-c1noc(-c2ccc3scnc3c2)n1` [Compound 362, 5-[3-(2-methylphenyl)-1,2,4-oxadiazol-5-yl]-1,3-benzothiazole], for which the Emax in assay [1] and in assay [2] was less than 75% each time. Moreover, the EC50 in assay [1] is greater than 0.316 µM; in assay [2], greater than 10 µM.

As for `COc1ccc(-c2nsc(-c3ccc4[nH]ccc4c3)n2)cc1` [Compound 363, 5-[3-(4-methoxyphenyl)-1,2,4-thiadiazol-5-yl]-1H-indole], in assay [1], the Emax is less than 75% and the EC50 is greater than 0.316 µM. Besides, in assay [2], the Emax is less than 75% and the EC50 is greater than 10 µM.

Consider `COc1cccc(-c2nc(-c3ccc4[nH]ccc4c3)ns2)c1` [Compound 364, 5-[5-(3-methoxyphenyl)-1,2,4-thiadiazol-3-yl]-1H-indole], for which, in assay [1], the Emax is greater than 75% and the EC50 was greater than 0.316 µM. In assay [2], the Emax is less than 75% and the EC50 was greater than 10 µM.

In the case of `Cc1ccccc1-c1noc(-c2ccc3c(c2)CCC(=O)N3)n1` [Compound 365, 6-[3-(2-methylphenyl)-1,2,4-oxadiazol-5-yl]-1,2,3,4-tetrahydroquinolin-2-one], in assay [1], the Emax was greater than 75% and the EC50 is greater than 0.316 µM. In assay [2], the Emax is less than 75% and the EC50 is less than 10 µM.

Consider `COc1cccc(-c2nc(-c3ccc4c(ccn4C(C)C)c3)ns2)c1` [Compound 366, 5-[5-(3-methoxyphenyl)-1,2,4-thiadiazol-3-yl]-1-(propan-2-yl)-1H-indole], for which the Emax in assay [1] and in assay [2] was less than 75% throughout. Further, the figures for the EC50 in assay [1] and in assay [2] were greater than 0.316 µM and greater than 10 µM, respectively.

For the compound `Cc1ccccc1-c1noc(-c2ccc3c(c2)CCC(=O)N3C)n1` [Compound 367, 1-methyl-6-[3-(2-methyl-phenyl)-1,2,4-oxadiazol-5-yl]-1,2,3,4-tetrahydroquinolin-2-one], in assay [1], the Emax was less than 75% and the EC50 is greater than 0.316 µM. Also, in assay [2], the Emax is less than 75% and the EC50 was greater than 10 µM.

Regarding `COc1ccccc1-c1noc(-c2ccc3[nH]ccc3c2)n1` [Compound 368, 5-(1H-indol-5-yl)-3-(2-methoxyphenyl)-1,2,4-oxadiazole], in assay [1], the Emax was less than 75% and the EC50 was greater than 0.316 µM. For the same compound, in assay [2], the Emax was less than 75% and the EC50 is greater than 10 µM.

As to `COc1ccccc1-c1noc(-c2ccc3[nH]cnc3c2)n1` [Compound 369, 5-(1H-benzo[d]imidazol-5-yl)-3-(2-methoxy-phenyl)-1,2,4-oxadiazole], in assay [1], the Emax was less than 75% and the EC50 is greater than 0.316 µM. In addition, in assay [2], the Emax is less than 75% and the EC50 was greater than 10 µM.

`COc1ccccc1-c1noc(-c2ccc3c(cnn3C(C)C)c2)n1` [Compound 370, 5-(1-isopropyl-1H-indazol-5-yl)-3-(2-methoxyphenyl)-1,2,4-oxadiazole]: the Emax in assay [1] and in assay [2] was greater than 75% throughout. Further, the EC50 was less than 0.316 µM in assay [1] and less than 10 µM in assay [2].

Consider `COc1ccccc1-c1noc(-c2ccc3[nH]ncc3c2)n1` [Compound 371, 5-(1H-indazol-5-yl)-3-(2-methoxyphenyl)-1,2,4-oxadiazole], for which, in assay [1], the Emax is less than 75% and the EC50 was greater than 0.316 µM. In assay [2], the Emax is less than 75% and the EC50 is greater than 10 µM.
